# Assay results: ChEMBL document CHEMBL5257017, “Small Molecule CXCR3 Antagonists” (J Med Chem, 2016)
# How the values were obtained:
# [1] = Volume of distribution in mouse at 10 mg/kg. po or 0.2 mg/kg, iv; assay type: ADME, organism-based; conditions: in vivo
# [2] = biological target: T1, C-X-C chemokine receptor type 3 (Homo sapiens, UniProt P49682); assay: Antagonist activity at CXCR3 (unknown origin) assessed as reduction in CXCL10 induced calcium flux by flow cytometry
# T1 sequence (P49682 whole entry): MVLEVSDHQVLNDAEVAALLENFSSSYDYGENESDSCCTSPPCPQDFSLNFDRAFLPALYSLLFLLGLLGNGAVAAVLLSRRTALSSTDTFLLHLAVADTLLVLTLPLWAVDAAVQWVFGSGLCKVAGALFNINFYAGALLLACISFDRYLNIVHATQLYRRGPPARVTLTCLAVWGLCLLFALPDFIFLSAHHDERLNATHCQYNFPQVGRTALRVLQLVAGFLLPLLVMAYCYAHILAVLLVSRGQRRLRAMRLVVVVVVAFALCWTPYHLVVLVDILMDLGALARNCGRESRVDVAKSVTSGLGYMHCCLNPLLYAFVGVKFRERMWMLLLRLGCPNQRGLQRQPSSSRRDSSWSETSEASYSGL
# [3] = Clearance in rat at 10 mg/kg, po or 0.2 mg/kg, iv; assay type: ADME, organism-based; conditions: in vivo
# [4] = biological target: T1, C-X-C chemokine receptor type 3; assay: Antagonist activity at CXCR3 (unknown origin) assessed as reduction in CXCL10 induced calcium flux by FLIPR method
# [5] = biological target: T1, C-X-C chemokine receptor type 3; assay: Antagonist activity at CXCR3 (unknown origin) assessed as reduction in CXCL10 induced calcium flux by [35S]GTPgammaS binding assay
# [6] = biological target: T1, C-X-C chemokine receptor type 3; assay: Antagonist activity at CXCR3 (unknown origin) assessed as reduction in CXCL11 induced calcium flux by FLIPR method
# [7] = biological target: T1, C-X-C chemokine receptor type 3; assay: Displacement of [125I]-CXCL10 from CXCR3 in human PBMC cells; assay type: cell-based
# [8] = AUC in rat at 10 mg/kg, po; assay type: ADME, organism-based; design: dose 10 mg/kg, route po; conditions: in vivo
# [9] = AUC in mouse at 10 mg/kg, po; assay type: ADME, organism-based; design: dose 10 mg/kg, route po; conditions: in vivo
# [10] = biological target: T1, C-X-C chemokine receptor type 3; assay: Displacement of [125I]-CXCL10 from CXCR3 in human PBMC cells by scintillation proximity assay; assay type: cell-based
# [11] = Half life in rat at 2.0 mg/kg, po or 0.5 mg/kg, iv; assay type: ADME, organism-based; conditions: in vivo
# [12] = biological target: T1, C-X-C chemokine receptor type 3; assay: Antagonist activity at CXCR3 (unknown origin) assessed as reduction in CXCL11 induced calcium flux by flow cytometry
# [13] = Lipophilicity, logD of compound at pH 7.4; assay type: physicochemical; conditions: buffer
# [14] = Intrinsic clearance in mouse liver microsomes; assay type: ADME, Microsome
# [15] = biological target: T1, C-X-C chemokine receptor type 3; assay: Antagonist activity at human CXCR3 assessed as reduction in CXCL11 induced calcium flux by [35S]GTPgammaS binding assay
# [16] = Clearance in rat at 10 mg/kg, po or 5 mg/kg, iv; assay type: ADME, organism-based; conditions: in vivo
# [17] = Oral bioavailability in mouse at 10 mg/kg; assay type: ADME, organism-based; conditions: in vivo
# [18] = Half life in mouse at 10 mg/kg, po or 5 mg/kg, iv; assay type: ADME, organism-based; conditions: in vivo
# [19] = Clearance in mouse at 30 mg/kg, po; assay type: ADME, organism-based; conditions: in vivo
# [20] = Oral bioavailability in mouse at 30 mg/kg; assay type: ADME, organism-based; conditions: in vivo
# [21] = biological target: T2, C-X-C chemokine receptor type 3 (Mus musculus, UniProt O88410); assay: […] of CXCR3 receptor internalization in mouse whole blood in presence of CXCl10 by flow cytometry; assay type: tissue-based
# T2 sequence (O88410 whole entry): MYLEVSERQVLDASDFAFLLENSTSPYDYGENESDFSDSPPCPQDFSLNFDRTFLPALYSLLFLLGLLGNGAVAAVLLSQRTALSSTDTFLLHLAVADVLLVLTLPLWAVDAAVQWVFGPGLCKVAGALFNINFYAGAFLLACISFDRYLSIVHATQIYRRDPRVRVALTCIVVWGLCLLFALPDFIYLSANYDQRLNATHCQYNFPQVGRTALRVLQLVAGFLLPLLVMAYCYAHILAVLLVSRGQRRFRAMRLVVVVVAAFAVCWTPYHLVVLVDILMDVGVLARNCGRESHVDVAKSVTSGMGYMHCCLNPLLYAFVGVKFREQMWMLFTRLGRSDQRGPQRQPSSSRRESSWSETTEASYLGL
# [22] = biological target: C-C chemokine receptor type 4 (Homo sapiens) (UniProt P51679); assay: Antagonist activity at CCR4 (unknown origin)
# [23] = biological target: C-C chemokine receptor type 6 (Homo sapiens) (UniProt P51684); assay: Antagonist activity at CCR6 (unknown origin)
# [24] = biological target: C-C chemokine receptor type 7 (Homo sapiens) (UniProt P32248); assay: Antagonist activity at CCR7 (unknown origin)
# [25] = biological target: T1, C-X-C chemokine receptor type 3; assay: Antagonist activity at CXCR3 (unknown origin)
# [26] = biological target: T3, C-X-C chemokine receptor type 2 (Homo sapiens, UniProt P25025); assay: Antagonist activity at CXCR2 (unknown origin)
# T3 sequence (P25025 whole entry): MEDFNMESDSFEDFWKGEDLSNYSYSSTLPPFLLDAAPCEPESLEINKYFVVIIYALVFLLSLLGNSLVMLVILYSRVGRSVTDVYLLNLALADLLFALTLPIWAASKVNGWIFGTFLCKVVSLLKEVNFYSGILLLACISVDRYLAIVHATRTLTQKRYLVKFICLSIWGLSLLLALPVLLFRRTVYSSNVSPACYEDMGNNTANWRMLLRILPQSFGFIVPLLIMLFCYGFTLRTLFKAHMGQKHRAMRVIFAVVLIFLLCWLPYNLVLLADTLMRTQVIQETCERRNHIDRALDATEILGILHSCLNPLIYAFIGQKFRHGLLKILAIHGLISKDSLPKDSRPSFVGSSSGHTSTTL
# [27] = biological target: C-X-C chemokine receptor type 3 (Homo sapiens) (UniProt P49682); assay: Inhibition of CXCR3 at 20 to 50 uM relative to control
# [28] = biological target: T4, hERG (KCNH2) (Homo sapiens, UniProt Q12809); assay: Inhibition of hERG at 3 uM relative to control; assay type: toxicity
# [29] = Solubility of compound; assay type: physicochemical
# [30] = biological target: Voltage-gated inwardly rectifying potassium channel KCNH2 (Homo sapiens, UniProt Q12809); assay: Inhibition of hERG; assay type: toxicity
# [31] = biological target: T4, hERG (KCNH2); assay: Inhibition of hERG at 10 uM relative to control; assay type: toxicity
# [32] = AUC in rat at 2 mg/kg, po; assay type: ADME, organism-based; design: dose 2 mg/kg, route po; conditions: in vivo
# T4 sequence (Q12809 whole entry): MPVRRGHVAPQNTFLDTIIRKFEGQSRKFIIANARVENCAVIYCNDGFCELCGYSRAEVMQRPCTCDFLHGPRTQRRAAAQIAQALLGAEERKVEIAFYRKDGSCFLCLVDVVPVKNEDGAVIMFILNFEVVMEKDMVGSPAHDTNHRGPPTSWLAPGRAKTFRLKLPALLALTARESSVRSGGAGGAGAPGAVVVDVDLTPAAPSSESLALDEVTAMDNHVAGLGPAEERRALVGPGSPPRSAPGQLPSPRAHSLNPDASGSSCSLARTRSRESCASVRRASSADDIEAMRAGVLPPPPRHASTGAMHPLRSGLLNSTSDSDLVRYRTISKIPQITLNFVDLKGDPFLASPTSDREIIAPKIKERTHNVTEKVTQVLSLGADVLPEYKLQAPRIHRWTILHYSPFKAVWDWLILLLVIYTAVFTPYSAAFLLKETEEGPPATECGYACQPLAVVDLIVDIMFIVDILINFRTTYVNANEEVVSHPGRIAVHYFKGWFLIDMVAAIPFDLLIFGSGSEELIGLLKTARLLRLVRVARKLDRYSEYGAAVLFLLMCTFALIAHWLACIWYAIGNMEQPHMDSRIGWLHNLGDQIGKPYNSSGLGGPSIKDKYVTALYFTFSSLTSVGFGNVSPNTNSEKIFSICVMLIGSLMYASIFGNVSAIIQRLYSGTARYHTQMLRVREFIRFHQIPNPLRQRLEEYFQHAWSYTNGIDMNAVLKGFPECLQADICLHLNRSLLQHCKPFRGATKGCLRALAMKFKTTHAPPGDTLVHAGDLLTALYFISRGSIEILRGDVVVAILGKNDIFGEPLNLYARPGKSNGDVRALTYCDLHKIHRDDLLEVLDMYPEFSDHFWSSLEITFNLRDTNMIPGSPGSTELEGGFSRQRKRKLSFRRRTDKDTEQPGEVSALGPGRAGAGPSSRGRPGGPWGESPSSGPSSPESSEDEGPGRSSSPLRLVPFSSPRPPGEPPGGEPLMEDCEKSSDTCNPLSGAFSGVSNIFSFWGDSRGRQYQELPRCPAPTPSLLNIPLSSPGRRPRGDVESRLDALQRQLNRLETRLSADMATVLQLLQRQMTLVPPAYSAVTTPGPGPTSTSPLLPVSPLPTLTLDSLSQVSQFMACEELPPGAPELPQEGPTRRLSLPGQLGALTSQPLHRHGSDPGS
# Chain of C-C chemokine receptor type 4 (Homo sapiens) (P51679 whole entry, looked up): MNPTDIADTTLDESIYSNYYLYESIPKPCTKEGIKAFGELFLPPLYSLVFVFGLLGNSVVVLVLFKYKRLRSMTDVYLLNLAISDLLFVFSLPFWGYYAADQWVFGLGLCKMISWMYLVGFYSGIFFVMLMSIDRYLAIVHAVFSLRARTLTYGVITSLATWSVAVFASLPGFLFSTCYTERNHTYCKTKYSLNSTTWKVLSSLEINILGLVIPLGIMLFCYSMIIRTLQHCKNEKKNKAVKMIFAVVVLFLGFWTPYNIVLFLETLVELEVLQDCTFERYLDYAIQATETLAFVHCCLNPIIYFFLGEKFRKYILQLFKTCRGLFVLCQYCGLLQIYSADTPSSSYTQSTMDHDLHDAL
# Chain of Voltage-gated inwardly rectifying potassium channel KCNH2 (Q12809 whole entry): as the sequence (Q12809 whole entry) above
# Chain of C-C chemokine receptor type 6 (Homo sapiens) (P51684 whole entry, looked up): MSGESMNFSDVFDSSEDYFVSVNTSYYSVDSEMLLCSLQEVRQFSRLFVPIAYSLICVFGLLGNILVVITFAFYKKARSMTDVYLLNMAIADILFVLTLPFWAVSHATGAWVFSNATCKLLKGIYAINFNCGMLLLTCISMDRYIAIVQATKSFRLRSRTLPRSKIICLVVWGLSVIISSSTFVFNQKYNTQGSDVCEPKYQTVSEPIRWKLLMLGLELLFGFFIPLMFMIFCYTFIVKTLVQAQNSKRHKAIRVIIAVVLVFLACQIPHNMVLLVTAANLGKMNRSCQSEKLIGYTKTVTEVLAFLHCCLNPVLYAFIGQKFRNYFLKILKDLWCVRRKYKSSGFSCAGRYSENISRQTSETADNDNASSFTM
# Chain of C-C chemokine receptor type 7 (Homo sapiens) (P32248 whole entry, looked up): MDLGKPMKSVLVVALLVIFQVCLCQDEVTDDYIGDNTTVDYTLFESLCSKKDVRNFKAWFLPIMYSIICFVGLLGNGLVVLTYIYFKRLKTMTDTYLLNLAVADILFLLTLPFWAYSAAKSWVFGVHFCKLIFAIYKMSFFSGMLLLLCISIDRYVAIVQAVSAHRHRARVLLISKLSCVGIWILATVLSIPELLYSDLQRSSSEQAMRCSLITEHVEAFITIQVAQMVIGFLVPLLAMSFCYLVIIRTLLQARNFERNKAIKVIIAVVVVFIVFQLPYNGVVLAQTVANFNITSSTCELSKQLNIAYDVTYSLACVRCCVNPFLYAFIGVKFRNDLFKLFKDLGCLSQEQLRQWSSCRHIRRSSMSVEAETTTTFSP
smiles,measurement,setting,value
N#Cc1ccc(S(=O)(=O)N(Cc2ccc(-c3nnn[nH]3)c(F)c2)Cc2ccccc2F)cc1,Vd,[1],1 L/kg
same,IC50,[2],200 nM
same,clearance,[3],28.3 mL/min/kg
CC(=O)Nc1cccc(/C(C)=N\NC(=O)c2ccc(CN(Cc3ccccc3)S(=O)(=O)c3ccc(Cl)cc3)cc2)c1,Ki,[4],6500 nM
same,IC50,[2],501 nM
same,IC50,[5],100 nM
same,Ki,[6],200 nM
N=C(Nc1ccc(I)cc1)NC1C2CC3CC(C2)CC1C3 (stereo not drawn),Ki,[7],158 nM
CCNC(=O)c1cnc(N2CCN(C3CCN(Cc4ccc(Cl)cc4F)CC3)[C@@H](CC)C2)c(Cl)c1,Ki,[7],0.316 nM
same,AUC,[8],0.95 µM·h
CC[C@H]1CN(c2nc(N)c(C(N)=O)nc2Cl)CCN1C1CCN(Cc2ccc(Cl)cc2)CC1,AUC,[9],5.1 µM·h
same,Ki,[7],0.794 nM
C[C@H](c1nc2ncccc2c(=O)n1-c1ccc(Cl)cc1)N(CC1CCS(=O)(=O)CC1)C(=O)Cc1ccc(F)c(C(F)(F)F)c1,IC50,[10],6.31 nM
same,half-life,[11],4 h
same,IC50,[6],5.01 nM
C[C@H](c1nc2ncccc2c(=O)n1-c1ccc(Cl)cc1)N(CC1CCS(=O)(=O)CC1)C(=O)Cc1ccc(C(F)(F)F)c(F)c1,IC50,[10],6.31 nM
CCCCCCCCCC(=O)N(CCN(C)C)C(C)c1nc2ccccc2c(=O)n1-c1ccc(F)cc1 (stereo not drawn),IC50,[6],398 nM
CCNC(=O)N1CCCN(c2ccc(C(=O)NCCc3ccc(Cl)cc3Cl)cc2NC(=O)c2cccc(Cl)c2)CC1,IC50,[6],63.1 nM
same,pIC50,[12],7
CC1(C)[C@H]2CC=C(CN3CCC(Nc4nc(-c5cc(C(F)(F)F)cc(C(F)(F)F)c5)ns4)CC3)[C@@H]1C2,logD,[13],5
same,CLH,[14],0.016 mL/min/kg
same,Ki,[15],251 nM
Cc1cccc2c1n(C)c(=N)n2CC(=O)c1ccc(Cl)cc1,clearance,[16],95 mL/min/kg
same,bioavailability,[17],57%
same,half-life,[18],4.9 h
CC(=O)N1C2C=C(CN3[C@@H]4CC[C@H]3C[C@H](Nc3ccc5ccc(OC(C)C)cc5n3)C4)CC1CCC2,logD,[13],2.9
same,CLint,[14],9 µL/min/mg
same,CL/F,[19],9 mL/min/kg
same,bioavailability,[20],69%
CC(=O)c1nc2ccccc2n1CC(=O)c1ccc([N+](=O)[O-])cc1,IC50,[7],3160 nM
COc1cc(CN(C[C@H]2CC[C@H](C(=O)O)CC2)[C@H]2CCc3cc(Cl)ccc32)ccc1OCCN1C(=O)CCC1=O,IC50,[7],12.6 nM
CCNC(=O)N1CCCN(c2ccc(C(=O)NC(C)C)cc2NC(=O)c2cccc(Cl)c2)CC1,IC50,[6],2000 nM
C[C@H]1CN(c2scnc2-c2nc3ccccc3[nH]2)CCN1C(=O)Cn1ccc2cccnc21,IC50,[21],398 nM
Cc1ccc(C(Nc2c(Nc3cccc(C(=O)N(C)C)c3O)c(=O)c2=O)C2(C)CCCO2)o1 (stereo not drawn),IC50,[22],398 nM
same,IC50,[23],2 nM
same,IC50,[24],7.94 nM
same,IC50,[25],1.26 nM
same,IC50,[26],63.1 nM
O=C(Nc1ccccc1)N1CCCC(c2ccccc2)(C2CCN(Cc3ccc(Br)cc3)CC2)C1 (stereo not drawn),IC50,[5],31.6 nM
CC[C@H](C)C[C@H](C)C[C@H](C)[C@@H](O[C@@H]1O[C@H](COC(C)=O)[C@@H](O)[C@@H](O)[C@@H]1O)[C@@H](C)/C=C(\C)[C@@H](O)[C@@H](C)/C=C(\C)[C@@H](O)[C@@H](C)/C=C(\C)C(=O)OC[C@@H](O)[C@H](O)[C@H](O)CO,IC50,[7],15800 nM
O=C(Nc1ccc2ccccc2c1)NC1CCN(CC2=CCCCCC2)CC1,Ki,[15],100 nM
CCN(CC)C(=O)[C@@H]1C=C2C3C=CCc4[nH]cc(c43)C[C@H]2N(C(=O)Nc2ccccc2)C1 (stereo partly drawn),IC50,[7],50.1 nM
same,IC50,[6],20 nM
Cc1ccc(C(=O)N2CCN(CC(=O)Nc3cc(-c4ccccc4)sc3C(N)=O)CC2)cc1,inhibition at 50 µM,[27],50%
CC[C@H]1CN(c2ncc(C(N)=O)nc2C)CCN1C1CCN(Cc2ccc(Cl)nc2N)CC1,inhibition at 3 µM,[28],0%
CC(=O)N1C2C=C(CN3[C@@H]4CC[C@H]3C[C@H](NC(=O)Nc3cc(F)cc(C(F)(F)F)c3)C4)CC1CCC2,logD,[13],3.1
same,solubility,[29],40 µg/mL
same,Ki,[15],6.31 nM
O=C(Cn1c(=O)[nH]c2ccccc21)N1CCN(c2ncc(Cl)cc2-c2cnc(N3CCC(O)CC3)nc2)CC1,IC50,[30],31600 nM
C[C@@H]1CC[C@@]2(OC1)OC1CC3C4CC=C5[C@@H](O[C@@H]6O[C@H](CO)[C@@H](O[C@H]7O[C@H](C)[C@@H](O)[C@H](O)[C@@H]7O)[C@@H](O)[C@H]6O[C@H]6O[C@@H](C)[C@@H](O)[C@H](O)[C@@H]6O)CCC[C@]5(C)C4CC[C@]3(C)C1[C@@H]2C (stereo partly drawn),IC50,[7],501 nM
CCNc1nnc(-c2cnc(N3C[C@H](CC)N(C4CCN(Cc5ccc(Cl)cc5)CC4)C[C@H]3C)c(C)n2)o1,inhibition at 10 µM,[31],25%
CNc1ncc(-c2cc(C(F)(F)F)ccc2N2CCN(C(=O)Cn3nc(C)cc3C)CC2)cn1,AUC,[32],271 ng·h/mL
N#Cc1ccc(CN2CCC(N3CCN(c4ncc(C(=O)NCCOc5ccccc5)cc4Cl)CC3)CC2)cc1,Ki,[7],100 nM
